Test results taken from patent US9550782B2, “Compounds and methods for treating diabetes” (Medivation Technologies, Inc., priority 2011, dated 2017).
Where “and” joins values, the source holds several entries; their conditions need not be identical. Equal values may be shown once.

Experiments:
[1] = target: T1, human recombinant adrenergic α2A receptor (Homo sapiens, UniProt P08913); assay: Radioligand binding, adrenergic α2A ([3H]MK-912); conditions: [3H]MK-912; for Percentage inhibition of ligand binding, Adrenergic α2A (0.1 μM): compound at 0.1 μM, repeat datapoints each shown; for Percentage inhibition of ligand binding, Adrenergic α2A: 0.1 μM compound
T1 construct: expressed in transfected cells; host or cells: insect Sf9 cells
T1 sequence (P08913 1-465): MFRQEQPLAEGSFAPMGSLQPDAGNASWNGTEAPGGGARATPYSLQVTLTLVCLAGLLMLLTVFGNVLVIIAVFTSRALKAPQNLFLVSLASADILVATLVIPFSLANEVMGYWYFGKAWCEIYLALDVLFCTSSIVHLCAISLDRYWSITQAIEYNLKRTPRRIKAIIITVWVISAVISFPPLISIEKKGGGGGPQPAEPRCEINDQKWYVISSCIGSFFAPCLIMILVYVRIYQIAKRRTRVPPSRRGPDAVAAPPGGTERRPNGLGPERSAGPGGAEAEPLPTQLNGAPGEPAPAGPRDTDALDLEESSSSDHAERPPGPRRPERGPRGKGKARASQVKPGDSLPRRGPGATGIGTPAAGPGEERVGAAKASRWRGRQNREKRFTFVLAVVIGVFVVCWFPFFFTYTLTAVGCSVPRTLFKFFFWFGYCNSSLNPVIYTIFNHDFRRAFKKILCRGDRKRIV
In short: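 In 50 mM Tris-HCl (pH 7.4) containing 12.5 mM MgCl2 and 2 mM EDTA, Sf9-expressed receptor was exposed to test compound plus 1 nM [3H]MK-912 at 25 °C for 60 min. Specific binding, corrected using 10 μM WB-4101, was quantified by filtration and counting and expressed as percent inhibition.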

[2] = target: T2, rat adrenergic α1B receptor (Rattus norvegicus, UniProt P15823); assay: Radioligand binding, adrenergic α1B ([3H]Prazosin); design: species or system Wistar Rat; conditions: for Percentage inhibition of ligand binding, Adrenergic α1B (0.1 μM): compound at 0.1 μM, repeat datapoints each shown; for Percentage inhibition of ligand binding, Adrenergic α1B: 0.1 μM compound
T2 construct: rat adrenergic α1B receptor obtained from Wistar Rat liver; from tissue; host or cells: Wistar rat liver
T2 sequence (P15823 1-515): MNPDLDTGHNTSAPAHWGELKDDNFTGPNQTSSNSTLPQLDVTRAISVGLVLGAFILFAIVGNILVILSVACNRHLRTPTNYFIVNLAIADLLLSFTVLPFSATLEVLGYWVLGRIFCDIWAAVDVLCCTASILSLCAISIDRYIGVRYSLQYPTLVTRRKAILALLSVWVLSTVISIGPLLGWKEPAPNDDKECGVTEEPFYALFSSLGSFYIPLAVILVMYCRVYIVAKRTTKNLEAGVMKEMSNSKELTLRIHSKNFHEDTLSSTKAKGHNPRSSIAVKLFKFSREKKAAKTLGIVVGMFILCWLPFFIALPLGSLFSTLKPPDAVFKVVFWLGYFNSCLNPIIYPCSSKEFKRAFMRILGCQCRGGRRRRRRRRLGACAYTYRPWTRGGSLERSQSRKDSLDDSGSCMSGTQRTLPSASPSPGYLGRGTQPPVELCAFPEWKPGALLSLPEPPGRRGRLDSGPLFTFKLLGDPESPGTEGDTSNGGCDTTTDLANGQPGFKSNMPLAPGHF
In short: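 Incubation ran 60 min at 25 °C in Tris-HCl buffer (50 mM, pH 7.4, 0.5 mM EDTA) with Wistar rat liver α1B receptor. 10 μM phentolamine set non-specific binding.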

[3] = target: T3, human recombinant adrenergic α2B receptor (Homo sapiens, UniProt P18089); assay: Radioligand binding, adrenergic α2B ([3H]Rauwolscine); conditions: for Percentage inhibition of ligand binding, Adrenergic α2B (0.03 μM): compound at 0.03 μM, repeat datapoints each shown
T3 construct: expressed in transfected cells; host or cells: CHO-K1
T3 sequence (P18089 1-450): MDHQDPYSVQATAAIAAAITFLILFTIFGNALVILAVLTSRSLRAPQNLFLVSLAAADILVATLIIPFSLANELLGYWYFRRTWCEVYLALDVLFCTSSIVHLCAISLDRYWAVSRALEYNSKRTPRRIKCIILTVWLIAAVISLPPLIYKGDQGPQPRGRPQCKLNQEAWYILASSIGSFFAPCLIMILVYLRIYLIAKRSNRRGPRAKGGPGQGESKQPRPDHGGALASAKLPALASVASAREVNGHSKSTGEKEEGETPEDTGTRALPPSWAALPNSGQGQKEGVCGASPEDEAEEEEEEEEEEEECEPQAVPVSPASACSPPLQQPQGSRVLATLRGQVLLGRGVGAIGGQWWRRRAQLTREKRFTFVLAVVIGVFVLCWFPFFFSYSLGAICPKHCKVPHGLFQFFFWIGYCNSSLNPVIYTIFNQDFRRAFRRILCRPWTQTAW
In short: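 Readout: percent inhibition of specific [3H]Rauwolscine binding, measured by filtration and counting. Conditions: CHO-K1 cell-expressed receptor, 2.5 nM radioligand, 60 min, 25° C, Tris-HCl pH 7.4 buffer with MgCl2, EDTA, BSA. Non-specific binding: 10 μM Prazosin.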

| SMILES | Percentage inhibition of ligand binding, Adrenergic α2A (0.1 μM) ([1]; 0.1 µM) [%] | Percentage inhibition of ligand binding, Adrenergic α1B (0.1 μM) ([2]; 0.1 µM) [%] | Percentage inhibition of ligand binding, Adrenergic α2B (0.03 μM) ([3]; 0.03 µM) [%] | Percentage inhibition of ligand binding, Adrenergic α2A ([1]; 0.1 µM) [%] | Percentage inhibition of ligand binding, Adrenergic α1B ([2]; 0.1 µM) [%] | Percentage inhibition of ligand binding, Adrenergic α2B ([3]; 0.03 μM compound, 0.03 µM) | also measured |
| --- | --- | --- | --- | --- | --- | --- | --- |
| CN1CCc2c(c3cccc(Br)c3n2CC(O)c2ccncc2)C1 (single isomer, unassigned) [48b] | 17 | 14 | 86 | – | – | – | – |
| Cc1ccc2c(c1)c1c(n2CC(O)c2ccncc2)CC2CCCN2C1 (single isomer, unassigned) [76a] | 21 | 78 | 92 | – | – | – | – |
| Cc1ccc2c(c1)c1c(n2CC(O)c2ccncc2)CC2CCCN2C1 (single isomer, unassigned) [76b] | 18 | 71 | 34 | – | – | – | – |
| Cc1ccc2c(c1)c1c(n2CC(O)c2ccncc2)CC2CCCN2C1 (single isomer, unassigned) [76c] | 5 | 33 | 35 | – | – | – | – |
| Cc1ccc2c(c1)c1c(n2CC(O)c2ccncc2)CC2CCCN2C1 (single isomer, unassigned) [76d] | 40 | 51 | 91 | – | – | – | – |
| Cc1cnc2c(c1)c1c(n2CC(O)c2ccc(F)cc2)CCN(C)C1 (single isomer, unassigned) [136a] | – | – | – | 16 | – | 34% | Percentage inhibition of ligand binding, Adrenergic α1B [2]: 54% |
| Cc1ccc(CCn2c3c(c4cc(Cl)cnc42)C2CCCN2CC3)cn1 (single isomer, unassigned) [137b] | – | – | – | – | 23 | 30% | Percentage inhibition of ligand binding, Adrenergic α2A [1]: 6% |
| Cc1cnc2c(c1)c1c(n2CC(C)(O)c2ccc(F)cc2)CCN(C)C1 (single isomer, unassigned) [138a] | – | – | – | −8 | 61 | 63% | – |
| Cc1cnc2c(c1)c1c(n2CC(C)(O)c2ccc(F)cc2)CCN(C)C1 (single isomer, unassigned) [138b] | – | – | – | 4 | 22 | 25% | – |
| CN1CCc2c(c3cc(Cl)ccc3n2CC(C)(O)c2ccc(C(F)(F)F)nc2)C1 (single isomer, unassigned) [143b] | – | – | – | – | 17 | – | Percentage inhibition of ligand binding, Adrenergic α2A [1]: 0%; Percentage inhibition of ligand binding, Adrenergic α2B ([3]; 0.03 μM compound): 49% |
| Cc1cnc2c(c1)c1c(n2CC(C)(O)c2ccc(C)nc2)CCN2CCCC12 (single isomer, unassigned) [148a] | – | – | – | −5 | 23 | 52% | – |
| Cc1cnc2c(c1)c1c(n2CC(C)(O)c2ccc(C)nc2)CCN2CCCC12 (single isomer, unassigned) [148c] | – | – | – | −1 | 6 | 16% | – |
| Cc1ccc2c(c1)c1c(n2CC(N)c2ccncc2)CC2CCC1N2C (single isomer, unassigned) [155b] | – | – | – | 5 | 1 | – | Percentage inhibition of ligand binding, Adrenergic α2B ([3]; 0.03 μM compound): 5% |
| Cc1cnc2c(c1)c1c(n2CC(N)c2ccc(C#N)cc2)CCN(C)C1 (single isomer, unassigned) [159b] | – | – | – | – | 53 | 52% | Percentage inhibition of ligand binding, Adrenergic α2A [1]: −12% |

The next lines start with results.

| Percentage inhibition of ligand binding, Adrenergic α2A (0.1 μM) ([1]; 0.1 µM) [%] | Percentage inhibition of ligand binding, Adrenergic α1B (0.1 μM) ([2]; 0.1 µM) [%] | Percentage inhibition of ligand binding, Adrenergic α2B (0.03 μM) ([3]; 0.03 µM) [%] | Percentage inhibition of ligand binding, Adrenergic α2A ([1]; 0.1 µM) [%] | Percentage inhibition of ligand binding, Adrenergic α1B ([2]; 0.1 µM) [%] | Percentage inhibition of ligand binding, Adrenergic α2B ([3]; 0.03 μM compound, 0.03 µM) | SMILES | also measured |
| --- | --- | --- | --- | --- | --- | --- | --- |
| 11 | 1 | 20 | – | – | – | Cc1ccc2c(c1)c1c(n2CC(C)(O)c2ccc[n+]([O-])c2)CCN(C)C1 (single isomer, unassigned) [56a] | – |
| 17 | 6 | 28 | – | – | – | Cc1ccc2c(c1)c1c(n2CC(C)(O)c2ccc[n+]([O-])c2)CCN(C)C1 (single isomer, unassigned) [56b] | – |
| 18 | 11 | 15 | – | – | – | CN1CCc2c(c3cc(C(F)(F)F)ccc3n2CC(O)c2cccnc2)C1 (single isomer, unassigned) [59a] | – |
| 12 | 7 | 31 | – | – | – | CN1CCc2c(c3cc(C(F)(F)F)ccc3n2CC(O)c2cccnc2)C1 (single isomer, unassigned) [59b] | – |
| 11 | 4 | 10 | – | – | – | Cc1ccc2c(c1)c1c(n2CC(O)c2cc[n+]([O-])cc2)CCN(C)C1 (single isomer, unassigned) [69a] | – |
| 7 | 8 | 19 | – | – | – | Cc1ccc2c(c1)c1c(n2CC(O)c2cc[n+]([O-])cc2)CCN(C)C1 (single isomer, unassigned) [69b] | – |
| – | – | – | 4 | 60 | 42% | Cc1ccc2c(c1)c1c(n2CC(O)c2ccncc2Cl)CCN(C)C1 (single isomer, unassigned) [135a] | – |
| – | – | – | 22 | 30 | 68% | Cc1ccc2c(c1)c1c(n2CC(O)c2ccncc2Cl)CCN(C)C1 (single isomer, unassigned) [135b] | – |
| – | – | – | −1 | 41 | 37% | Cc1ccc2c(c1)c1c(n2CC(C)(OC(=O)C(C)C)c2cccnc2)CCN(C)C1 (single isomer, unassigned) [146a] | – |
| – | – | – | 21 | 11 | 63% | Cc1ccc2c(c1)c1c(n2CC(C)(OC(=O)C(C)C)c2cccnc2)CCN(C)C1 (single isomer, unassigned) [146b] | – |
| – | – | – | 16 | 16 | 88% and 96% | Cc1ccc2c(c1)c1c(n2CC(c2ccncc2)N(C)C)CCN(C)C1 (single isomer, unassigned) [150a] | Percentage inhibition of ligand binding, Adrenergic α2B ([3]; 0.1 μM compound): 100% |
